Results: patent US20170191058A1, “PERFORIN 2 DEFENSE AGAINST INVASIVE AND MULTIDRUG RESISTANT PATHOGENS” (priority 2012, published 2017)

B1: P-2-GFP: P-2 fused via a linker at the C-terminus of its cytoplasmic domain to GFP, expressed by transfection (protein)
chain: DKPLGETGTTGFQICKNALKLPVLEVLPGGGWDNLRNVDMGRVMDLTYTNCKTTEDGQYIIPDEVYTIPQKESNLEMNSEVLESWMNYQSTTSLSINTELALFSRVNGKFSTEFQRMKTLQVKDQAVTTRVQVRNRIYTVKTTPTSELSLGFTKALMDICDQLEKNQTKMATYLAELLILNYGTHVITSVDAGAALVQEDHVRSSFLLDNQNSQNTVTASAGIAFLNIVNFKVETDYISQTSLTKDYLSNRTNSRVQSFGGVPFYPGITLETWQKGITNHLVAIDRAGLPLHFFIKPDKLPGLPGPLVKKLSKTVETAVRHYYTFNTHPGCTNVDSPNFNFQANMDDDSCDAKVTNFTFGGVYQECTELSGDVLCQNLEQKNLLTGDFSCPPGYSPVHLLSQTHEEGYSRLECKKKCTLKIFCKTVCEDVFRVAKAEFRAYWCVAAGQVPDNSGLLFGGVFTDKTINPMTNAQSCPAGYIPLNLFESLKVCVSLDYELGFKFSVPFGGFFSCIMGNPLVNSDTAKDVRAPSLKKCPGGFSQHLAVISDGCQVSYCVKAGIFTGGSLLPVRLPPYTKPPLMSQVATNTVIVTNSETARSWIKDPQTNQWKLGEPLELRRAMTVIHGDSNGMSGGEAAGITLGVTIALGIVITLAIYGTRKYKKKEYQEIEEQESLVGSLATDATVLNGEEDPSPA
modifications: left off: large carriers

Legend:
[1] = tested on: P-2 mRNA; assay: P-2 mRNA expression in mEF by TAQMAN PCR after cytokine treatment; type: cell-based, murine; settings: added singly, 14 hours
Procedure: (§1) Murine embryonic fibroblasts (FIG. 14A), a rectal cancer cell line (FIG. 14B), myoblast cell line (FIG. 14C), and an ovarian cell line (FIG. 14D) were treated for 14 hours with 100 U/ml interferon-α, interferon-β, and interferon-γ treated. LPS was treated at 1 ng/ml; IL-1α at 10 U/ml, IL-1β at 1 ng/ml, and TNFα at 20 ng/mL. A human embryonic kidney cell line (FIG. 14E) and cervical cancer cell line (FIG. 14F) were treated with human IFN-α at 150 U/ml, IFN-β and IFN-γ at 100 U/ml. The BV2 microglial cell line was stimulated with 100 U/ml of murine Interferon-γ for 14 hours to upregulate P-2 mRNA and protein. mEF treated with IFN-γ for 14 hours (mEF), or IFN-γ for 14 hours followed by 1 hour of treatment with […] MG-132 (mEF+MG132) (FIG. 14G). Human primary keratinocytes were analyzed for protein expression with indicated recombinant human IFN treatment (FIG. 14H). mEF were treated with E. coli or M. smegmatis. At indicated time points, cells were harvested and analyzed for P-2 mRNA and compared to uninfected controls by TAQMAN™ PCR. (FIG. 14I) mEF were either not stimulated, or stimulated for 14 hours with IFN-γ at 100 U/ml. After stimulation, mEF were infected with M. smegmatis and analyzed for colony forming units at indicated time points.
Recombinant murine IL-1α, IL-1β, TNFα, IFN-γ, IFN-α, IFN-β recombinant human IFN-γ, IFN-β were purchased from preprotech. Recombant human IFN-α was purchased from R&D systems. Murine […] was supplemented at 10 U/mL where indicated. Murine IL-1β was supplemented at 1 ng/ml. Murine TNFα was supplemented at 20 ng/ml. Murine IFN-α, IFN-β and IFN-γ was supplemented with 100 U/ml. Human IFN-α was supplemented where indicated in at a concentration of 150 U/ml where indicated. Human IFN-β and IFN-γ was supplemented at a concentration of 100 U/ml. LPS was added at a concentration of 1 ng/ml.
RNA was extracted from cells following RNeasy (Qiagen) instructions. One μg of RNA was converted to cDNA using QuantiTect Reverse Transcription kit (Qiagen) following supplier's protocol. qRT-PCR was performed using TAQMAN® Gene Expression Assays (Applied Biosystems) for murine Mpeg1 and GAPDH, with the later serving as a housekeeping control gene. For human tissues, human Mpeg1 and GapDH probes were utilized. All assays were performed on the Applied Biosystems 7300 PCR platform.

[2] = tested on: M. smegmatis; assay: Gentamycin protection assay: M. smegmatis in IFN-preinduced mEF; type: cell-based, Mycobacterium smegmatis; settings: uninduced mEF delayed by about 16 h
Procedure: as §1, with “points. […]” for “points.”

[3] = tested on: P-2; assay: P-2 expression in macrophages, BMDM/DC and microglia after LPS and IFN-γ; type: cell-based, murine; settings: LPS and IFN-γ given together, microglia
Procedure: BMDM/DC were differentiated from murine bone marrow for 10 days in the presence GM-CSF and then stimulated with (FIG. 9A) LPS ([…]) and IFNγ (100 U/ml) or (FIG. 9B) poly(I:C) (3 mg/ml) for 48 hr. (FIG. 9C) BV2 microglial cells were stimulated for 24 hr with IFNγ (100 U/ml). (FIG. 9D) RAW cells were stimulated for 24 hr with LPS (Ing/ml) and IFNγ (100 U/ml). Cells were harvested at the indicated time points and analyzed for P-2 message expression by TAQMAN™ RT-PCR, relative to GAPDH.
RNA was extracted from cells according to RNeasy (Qiagen) instructions. 1 μg of RNA was converted to cDNA using QuantiTect Reverse Transcription Kit (Qiagen) RT-PCR was performed using TAQMAN® Gene Expression Assays (Applied Biosystems) for murine Mpeg-1 and GAPDH, as a housekeeping control gene. All assays were performed on Applied Biosystems 7300 PCR platform.

[4] = tested on: Salmonella; assay: Gentamycin protection assay: intracellular Salmonella in mEF; type: cell-based, Salmonella typhimurium; settings: P-2 siRNA co-transfected
Procedure: (§2) Mouse rectal carcinoma CMT-93 was transiently transfected with a P-2 siRNA pool, or with P-2-RFP. Scramble siRNA or RFP were also transfected and analyzed to serve as controls for P-2 siRNA and P-2-RFP respectively. All transfections were performed 24 hours prior to infection. 14 hours prior to infection, cells were incubated with 100 U/ml of species specific IFN-γ. At indicated time points after infection, cells were lysed and plated for CFU analysis. (FIGS. 16A-16D) mEF were transfected with P-2siRNA and complemented with siRNA resistant P-2-RFP cDNA 24 hours prior to infection. 14 hours prior to infection, interferon-γ was added. mEF were infected with late log phase S. typhimurium. At indicated time points mEFs were lysed and analyzed for colony forming units. […]
S. typhimurium strain LT2Z), Mycobacterium smegmatis, methicillin-resistant Staphylococcus aureus, and E. coli strain K12 were grown from glycerol stocks at 37° C. with shaking for 24 hours in Luria broth (S. typhimurium, S. aureus, and E. coli) or Middlebrook 7H9 broth (M. smegmatis). […] At indicated time points, cells were washed with PBS, lysed using 1% Igepal in ddH2O, diluted and plated in technical triplicate on LB agar plates (S. typhimurium, S. aureus, E. coli) or Middlebrook 7H11 plates (M. smegmatis) and CFU determined after sufficient colony growth.

[5] = tested on: intracellular bacteria; assay: Gentamycin protection assay in various mouse and human cells and cell lines; type: cell-based; settings: complementation assays
Procedure: as §2
S. typhimurium strain LT2Z), Mycobacterium smegmatis, methicillin-resistant Staphylococcus aureus, and E. coli strain K12 were grown from glycerol stocks at 37° C. with shaking for 24 hours in Luria broth (S. typhimurium, S. aureus, and E. coli) or Middlebrook 7H9 broth (M. smegmatis). […] At indicated time points, cells were washed with PBS, lysed using 1% Igepal in ddH2O, diluted and plated in technical triplicate on LB agar plates (S. typhimurium, S. aureus, E. coli) or Middlebrook 7H11 plates (M. smegmatis) and CFU determined after sufficient colony growth. […]

[6] = tested on: M avium, MRSA, S. typhimurium, E. coli and M. smegmatis; assay: Gentamycin protection assay in RAW, BV2, BMDM/DC and PEM cells; type: cell-based; settings: transfected cells vs vector control
Procedure: Gentamicin protection assay: S. typhimurium strain LT2Z, Mycobacterium avium, Mycobacterium smegmatis (ATCC), methicllin resistant Staphylococcus aureus and K12 E. coli were grown from glycerol stocks at 37° C. with shaking for 16-18 hr in Luria broth (LB) (S. typhimurium, S. aureus, and E. coli) or Middlebrook 7H9 broth (Mycobacteria) prior to infection. For Salmonella, the culture was then diluted 1:33 in LB and grown for another 3 hours to induce invasive phenotype. Macrophages or microglial cells were plated (5×10^5 cells/well of a 12 well plate) and stimulated overnight with LPS (Ing/ml) and IFN-γ (100 U/ml). Cells were infected the next day at indicated MOI for 30 minutes (S. typhimurium,) or 1 hour (all other bacteria) in 37° C., 5% CO2 incubator. Cells were washed twice with PBS and fresh medium containing 50 μg/ml gentamicin was added. […] At the indicated timepoints after adding gentamicin, the cells were washed with PBS, lysed using 0.1% Triton-X in water, diluted and plated in triplicate on agar plates and CFU determined. […]
In addition to PEM, bone marrow-derived macrophage/dendritic cells (BMDM/BMDC) and macrophage (RAW264.7) and microglia (BV2) cell lines have potent intracellular killing mechanisms for phagocytosed MRSA, Mycobacteria, S. typhimurium, and E. coli as determined by the gentamycin protection assay (FIGS. 3A-31). […]

| Molecule | P-2 mRNA induction in mEF [1] | time to kill intracellular M. smegmatis [2] | P-2 mRNA and protein expression [3] | complementation of endogenous P-2 knock down in mEF: killing activity [4] | activity of transfected fusion protein in killing of intracellular bacteria [5] | effect of overexpression on intracellular killing [6] |
| --- | --- | --- | --- | --- | --- | --- |
| IFNγ | up-regulates P-2 mRNA | 1 to 5 h | upregulate P-2 mRNA and protein expression |  |  |  |
| B1 |  |  |  | fully reconstitutes bactericidal activity | functional in killing of intracellular bacteria | increases bactericidal activity |
